pIC50: −log10 of the molar value.
How the values were obtained:
NLRP3 inflammasome = test: IL-1β secretion assay; assay type: cell-based; conditions: Homo sapiens, THP-1, 3 h, PMA-differentiated THP-1 cells, 15 μM nigericin, HTRF
Experimental: 10 μL supernatant was removed, and IL-1p levels were monitored using an HTRF assay (CisBio, #62IL1PEC) according to manufacturers' instructions. Viability and pyroptosis was monitored with the addition of PrestoBlue cell viability reagent (Life Technologies, #A13261) directly to the cell culture plate.
(§1) IC50 values were calculated from the plot of percentage of inhibition versus the inhibitor concentration by a logistics fit according to: y=A2+(A1−A2)/(1+(x/IC50)^p) where y is the %-inhibition at the inhibitor concentration, x. A1 is the lowest inhibition value, i.e. 0%, and A2 the maximum inhibition value, i.e. 100%. The exponent, p, is the Hill coefficient. The curve fitting was conducted with an internally developed software suite.
NLRP3-dependent IL-1β secretion was stimulated in PMA-differentiated THP-1 cells by the addition of nigericin, and cytokines were measured in the […] after 3 hours. As discussed above, activation of the NLRP3 inflammasome requires both an NF-kB-dependent priming step and the addition of a NLRP3 activator.

[1] = system: NF-kB-dependent TNF-α secretion; test: TNF-α secretion assay (counterscreen); assay type: cell-based; conditions: Homo sapiens; THP-1 cells, Pam3CSK4-stimulated, 3 hours, HTRF
Experimental: Monocytic THP-1 cells were maintained according to providers' instructions in RPMI media as described above. Undifferentiated cells were plated at 50,000 cells per well in a 384-well flat-bottom cell culture plates (Greiner, #781986), and allowed to rest overnight. Experimental compounds were prepared and added as described above. TNF-α secretion was triggered by the addition of either 1 μg/mL LPS (Sigma, #L4391) or 100 ng/mL Pam3CSK4 (Invivogen, #tlrl-pms) depending on the experiment, and cells were incubated for 3 hours. 10 μL supernatant was removed, and TNF-α levels were monitored using an HTRF assay (CisBio, #62TNFPEC) according to manufacturers' instructions. Viability was monitored as described above.
as §1, with “suite. […]” for “suite.”

| SMILES | pIC50 (NLRP3 inflammasome) | pIC50 [1] |
| --- | --- | --- |
| CC(C)c1nn(CC(=O)N[C@@H]2C[C@@H]2F)c(=O)c2cc3sc(Cl)cc3n12 [Ex 52, 2-(2-Chloro-5-isopropyl-8-oxothieno[2′,3′:4,5]pyrrolo[1,2-d][1,2,4]triazin-7(8H)-yl)-N-((1R,2S)-2-fluorocyclopropyl)acetamide] | 6.18 | < 4.00 |
| CC(C)c1nn(CC(=O)NCCO)c(=O)c2cc3sc(Cl)cc3n12 [Ex 68, 2-(2-Chloro-5-isopropyl-8-oxothieno[2′,3′:4,5]pyrrolo[1,2-d][1,2,4]triazin-7(8H)-yl)-N-(2-hydroxyethyl)acetamide] | 7.34 | < 4.00 |
| CC(C)c1nn(CC(=O)N[C@H]2C[C@@](C)(O)C2)c(=O)c2cc3sc(Cl)cc3n12 [Ex 72, 2-(2-Chloro-5-isopropyl-8-oxothieno[2′,3′:4,5]pyrrolo[1,2-d][1,2,4]triazin-7(8H)-yl)-N-((1s,3s)-3-hydroxy-3-methylcyclobutyl)acetamide] | 9.40 | < 4.00 |
| COC(=O)C12CC(NC(=O)Cn3nc(C(C)C)n4c(cc5sc(Cl)cc54)c3=O)(C1)C2 [Ex 113, Methyl 3-(2-(2-chloro-5-isopropyl-8-oxothieno[2′,3′:4,5]pyrrolo[1,2-d][1,2,4]triazin-7(8H)-yl)acetamido)bicyclo[1.1.1]pentane-1-carboxylate] | 8.24 | < 4.00 |
| CC(C)c1nn(CC(=O)N[C@H]2CC[C@H](C(=O)O)CC2)c(=O)c2cc3sc(Cl)cc3n12 [Ex 53, (1r,4r)-4-(2-(2-Chloro-5-isopropyl-8-oxothieno[2′,3′:4,5]pyrrolo[1,2-d][1,2,4]triazin-7(8H)-yl)acetamido)cyclohexane-1-carboxylic acid] | 7.47 | < 4.00 |
| CN1CCC[C@@H](NC(=O)Cn2nc(C3CC3)n3c(cc4sc(Cl)cc43)c2=O)C1 [Ex 37, (R)-2-(2-Chloro-5-cyclopropyl-8-oxothieno[2′,3′:4,5]pyrrolo[1,2-d][1,2,4]triazin-7(8H)-yl)-N-(1-methylpiperidin-3-yl)acetamide] | 6.99 | < 4.00 |
| CC(C)c1nn(CC(=O)N[C@@H]2CCCN(C3CC3)C2)c(=O)c2cc3scnc3n12 [Ex 127, (R)-N-(1-Cyclopropylpiperidin-3-yl)-2-(5-isopropyl-8-oxothiazolo[5′,4′:4,5]pyrrolo[1,2-d][1,2,4]triazin-7(8H)-yl)acetamide] | 8.38 | < 4.00 |
| CC(C)c1nn(CC(=O)N[C@@H]2CCC[C@@H](O)C2)c(=O)c2cc3sc(Cl)cc3n12 [Ex 21, 2-(2-Chloro-5-isopropyl-8-oxothieno[2′,3′:4,5]pyrrolo[1,2-d][1,2,4]triazin-7(8H)-yl)-N-((1R,3R)-3-hydroxycyclohexyl)acetamide] | 7.49 | < 4.00 |
| CC(C)c1nn(CC(=O)N[C@@H]2CCNC2)c(=O)c2cc3sc(Cl)cc3n12 [Ex 103, (R)-2-(2-Chloro-5-isopropyl-8-oxothieno[2′,3′:4,5]pyrrolo[1,2-d][1,2,4]triazin-7(8H)-yl)-N-(pyrrolidin-3-yl)acetamide] | 6.72 | < 4.00 |
| CC(C)(O)c1nn(CC(=O)N[C@@H]2CCC[C@H](O)C2)c(=O)c2cc3sc(Cl)cc3n12 [Ex 81, 2-(2-Chloro-5-(2-hydroxypropan-2-yl)-8-oxothieno[2′,3′:4,5]pyrrolo[1,2-d][1,2,4]triazin-7(8H)-yl)-N-((1R,3S)-3-hydroxycyclohexyl)acetamide] | 8.41 | < 4.00 |
| CC(C)c1nn(CC(=O)N[C@H]2CCOC2)c(=O)c2cc3sc(Cl)cc3n12 [Ex 99, (S)-2-(2-Chloro-5-isopropyl-8-oxothieno[2′,3′:4,5]pyrrolo[1,2-d][1,2,4]triazin-7(8H)-yl)-N-(tetrahydrofuran-3-yl)acetamide] | 6.27 | < 4.00 |
| O=C(Cn1nc(C2CC2)n2c(cc3sc(F)cc32)c1=O)N[C@@H]1CCCNC1 [Ex 34, (R)-2-(5-Cyclopropyl-2-fluoro-8-oxothieno[2′,3′:4,5]pyrrolo[1,2-d][1,2,4]triazin-7(8H)-yl)-N-(piperidin-3-yl)acetamide] | 7.10 | < 4.00 |

Source: US12168012B2, “NLRP3 inflammasome inhibitors” (Novartis AG, priority 2018, dated 2024)
